From publication PMC7909954 (eLife, 2021)
Several values for one entry are separate records, joined by “and”; a condition that tells them apart may be missing. Equal entries are not always repeated. Where two headings read alike, the source gives them in different places.

What was measured:
[1] = molecular target: T1, MOR (Homo sapiens, UniProt P35372); experiment: cell-based; settings: for Emax: HEK-293T, read-out: Emax% cAMP inhibition hMOR
[2] = molecular target: T2, DOR (Homo sapiens, UniProt P41143); experiment: cell-based
[3] = molecular target: T3, rKOR (Rattus norvegicus, UniProt P34975)
[4] = molecular target: T4, mDOR (Mus musculus, UniProt P32300); experiment: cell-based
[5] = molecular target: T5, mMOR (Mus musculus, UniProt P42866); experiment: biochemical
[6] = molecular target: T3, rKOR; experiment: cell-based; settings: HEK-293T, read-out: Emax% G protein activation (BRET) rKOR
[7] = molecular target: T6, mKOR (Mus musculus, UniProt P33534); experiment: biochemical
[8] = molecular target: T6, mKOR; experiment: biochemical; remark: listed apart in the source
[9] = molecular target: T7, KOR (Homo sapiens, UniProt P41145); settings: for Log RA cAMP hKOR / LogRA Tango hKOR: transduction coefficient log(T/KA)
[10] = molecular target: T4, mDOR; experiment: biochemical; settings: read-out: Emax mDOR [35S]GTPγS
[11] = molecular target: T1, MOR; experiment: cell-based
[12] = molecular target: T5, mMOR; experiment: cell-based
[13] = molecular target: T7, KOR; experiment: cell-based; settings: for Emax: HEK-293T, read-out: Emax% cAMP inhibition hKOR
[14] = molecular target: T7, KOR; experiment: cell-based; settings: for Emax: HTLA, read-out: Emax% arrestin recruitment (Tango) hKOR
[15] = molecular target: T4, mDOR; experiment: cell-based; remark: listed apart in the source
[16] = molecular target: T5, mMOR; experiment: biochemical; remark: listed apart in the source
[17] = molecular target: T1, MOR
[18] = molecular target: T2, DOR; experiment: cell-based; remark: listed apart in the source
[19] = molecular target: T3, rKOR; experiment: cell-based; settings: HEK-293T, read-out: Emax% arrestin recruitment (BRET) rKOR
[20] = molecular target: T1, MOR; remark: listed apart in the source

T6 sequence (P33534 whole entry): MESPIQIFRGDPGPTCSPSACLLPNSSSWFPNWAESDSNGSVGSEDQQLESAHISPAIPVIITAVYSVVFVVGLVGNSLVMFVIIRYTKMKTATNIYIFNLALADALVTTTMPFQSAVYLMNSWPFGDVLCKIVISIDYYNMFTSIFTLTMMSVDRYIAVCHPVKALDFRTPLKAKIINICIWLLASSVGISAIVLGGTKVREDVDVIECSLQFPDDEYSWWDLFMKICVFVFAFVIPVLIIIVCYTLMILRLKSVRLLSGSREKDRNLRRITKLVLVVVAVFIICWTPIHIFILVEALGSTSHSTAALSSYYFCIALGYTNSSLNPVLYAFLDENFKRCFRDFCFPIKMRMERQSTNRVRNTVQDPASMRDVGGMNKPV
T7 sequence (P41145 whole entry): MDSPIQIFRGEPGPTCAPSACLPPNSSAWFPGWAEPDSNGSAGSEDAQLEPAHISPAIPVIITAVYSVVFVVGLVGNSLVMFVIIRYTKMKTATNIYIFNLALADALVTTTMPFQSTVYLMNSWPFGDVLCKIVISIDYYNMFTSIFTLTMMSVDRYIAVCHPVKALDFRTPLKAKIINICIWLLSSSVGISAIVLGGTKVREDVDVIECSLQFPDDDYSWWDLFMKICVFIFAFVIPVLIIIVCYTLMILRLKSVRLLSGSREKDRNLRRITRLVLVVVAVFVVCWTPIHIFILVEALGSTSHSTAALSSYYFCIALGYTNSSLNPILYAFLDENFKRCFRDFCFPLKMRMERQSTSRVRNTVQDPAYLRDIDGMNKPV
T3 sequence (P34975 whole entry): as the sequence (P33534 whole entry) above, with D11E, S17A, S51P, A308V counted along it
T5 sequence (P42866 whole entry): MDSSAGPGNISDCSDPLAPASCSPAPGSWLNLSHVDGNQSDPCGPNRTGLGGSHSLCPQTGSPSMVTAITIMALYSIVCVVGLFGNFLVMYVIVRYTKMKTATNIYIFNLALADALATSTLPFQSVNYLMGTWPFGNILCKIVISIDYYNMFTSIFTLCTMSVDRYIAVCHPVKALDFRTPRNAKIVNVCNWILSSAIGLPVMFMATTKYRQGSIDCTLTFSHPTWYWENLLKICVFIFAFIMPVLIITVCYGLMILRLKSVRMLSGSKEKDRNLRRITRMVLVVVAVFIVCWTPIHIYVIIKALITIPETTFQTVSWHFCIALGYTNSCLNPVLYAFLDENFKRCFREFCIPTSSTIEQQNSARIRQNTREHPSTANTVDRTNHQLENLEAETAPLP
T2 sequence (P41143 whole entry): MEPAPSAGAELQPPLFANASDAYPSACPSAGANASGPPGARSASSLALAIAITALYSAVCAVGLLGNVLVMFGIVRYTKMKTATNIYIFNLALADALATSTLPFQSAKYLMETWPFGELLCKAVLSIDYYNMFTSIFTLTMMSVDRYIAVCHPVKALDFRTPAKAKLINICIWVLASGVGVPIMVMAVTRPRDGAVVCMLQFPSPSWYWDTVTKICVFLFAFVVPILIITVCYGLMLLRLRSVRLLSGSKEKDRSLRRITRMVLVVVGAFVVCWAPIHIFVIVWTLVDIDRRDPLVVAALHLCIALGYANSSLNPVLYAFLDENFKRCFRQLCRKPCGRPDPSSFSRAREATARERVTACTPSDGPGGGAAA
T4 sequence (P32300 whole entry): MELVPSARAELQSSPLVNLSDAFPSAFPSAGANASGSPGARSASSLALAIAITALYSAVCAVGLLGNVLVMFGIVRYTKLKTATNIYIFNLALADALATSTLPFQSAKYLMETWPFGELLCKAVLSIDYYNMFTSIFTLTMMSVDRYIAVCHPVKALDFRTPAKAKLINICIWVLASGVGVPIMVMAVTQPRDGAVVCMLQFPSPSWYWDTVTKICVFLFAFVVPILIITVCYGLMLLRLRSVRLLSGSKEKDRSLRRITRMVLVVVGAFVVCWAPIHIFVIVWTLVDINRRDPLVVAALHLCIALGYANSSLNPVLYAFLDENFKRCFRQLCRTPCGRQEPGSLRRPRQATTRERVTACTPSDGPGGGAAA
T1 sequence (P35372 whole entry): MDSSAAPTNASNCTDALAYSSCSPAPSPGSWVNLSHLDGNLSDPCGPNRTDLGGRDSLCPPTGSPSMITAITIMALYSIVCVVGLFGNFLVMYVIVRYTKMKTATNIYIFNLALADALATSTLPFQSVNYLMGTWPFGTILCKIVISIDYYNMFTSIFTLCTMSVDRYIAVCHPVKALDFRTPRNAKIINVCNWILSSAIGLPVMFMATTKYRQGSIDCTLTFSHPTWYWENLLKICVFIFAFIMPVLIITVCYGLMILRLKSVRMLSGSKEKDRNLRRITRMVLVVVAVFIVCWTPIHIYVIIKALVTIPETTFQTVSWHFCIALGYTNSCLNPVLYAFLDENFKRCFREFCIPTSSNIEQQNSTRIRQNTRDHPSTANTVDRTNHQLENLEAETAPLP

O=C(N[C@@H]1CC[C@@]2(O)C3Cc4ccc(O)cc4[C@@]2(CCN3CC2CC2)C1)c1cccc(I)c1 [MP1601, N-((4bR,6R,8aS)−11-(Cyclopropylmethyl)−3,8a-dihydroxy-6,7,8,8a,9,10-hexahydro-5H-9,4b-(epiminoethano)phenanthren-6-yl)−3-iodobenzamide]
EC50 ([1]; EC50 cAMP inhibition hMOR): 0.1 nM | Emax [1]: 69 ± 1% | EC50 ([1]; pEC50 cAMP inhibition hMOR): 0.102 nM | EC50 ([2]; EC50 arrestin recruitment hDOR, Tango): 86.7 nM | Emax ([2]; HTLA, read-out: Emax% arrestin recruitment hDOR): 203 ± 5.4% | Log RA BRET-G rKOR [3]: 7.917±0.018 | LogRA BRET-Arr rKOR [3]: 7.113±0.052 | ΔΔlog RA (BRETG-BRETArr) rKOR [3]: -0.006±0.057 | ΔlogRA BRET-G rKOR ([3]; vs U50,488h): 0.324±0.052 | ΔlogRA BRET-arr rKOR ([3]; vs U50,488h): 0.33±0.052 | EC50 ([4]; EC50 arrestin recruitment (BRET) mDOR): 9 nM | Emax ([4]; HEK-293T, read-out: Emax% arrestin recruitment (BRET) mDOR): 16 ± 1.4% | EC50 ([5]; EC50 mMOR [35S]GTPγS, ± SEM): 0.5 ± 0.2 nM | Emax ([5]; read-out: Emax mMOR [35S]GTPγS): 45 ± 4.6% | Emax [6]: 75 ± 3% | EC50 ([7]; EC50 mKOR [35S]GTPγS, ± SEM): 3 ± 0.7 nM | Emax ([7]; read-out: Emax mKOR [35S]GTPγS): 72 ± 4.5% | Ki [8]: 2.13 ± 0.3 nM | ΔΔlog RA (cAMP-Tango) hKOR [9]: -0.282±0.023 | Bias factor (cAMP-Tango) hKOR ([9]; >1 G protein bias, <1 arrestin bias, vs U50,488h): 0.5 and 0.52 | Log RA cAMP hKOR [9]: 9.85±0.014 | LogRA Tango hKOR [9]: 8.51±0.009 | ΔlogRA Tango hKOR ([9]; vs U50,488h): 0.097±0.012 | ΔlogRA cAMP hKOR ([9]; vs U50,488h): -0.19±0.020 | Emax [10]: 67 ± 3.9% | EC50 [11]: 4.02 nM | Emax ([11]; HTLA, read-out: Emax% arrestin recruitment (Tango) hMOR): 27 ± 2% | EC50 ([12]; EC50 G protein activation (BRET) mMOR): 2.2 nM | Emax ([12]; HEK-293T, read-out: Emax% G protein activation (BRET) mMOR): 49 ± 3% | EC50 ([12]; pEC50 G protein activation (BRET) mMOR): 2.51 nM | Emax [13]: 109 ± 1% | EC50 ([13]; pEC50 cAMP inhibition hKOR, ± SEM): 0.174 nM | EC50 ([14]; EC50 arrestin recruitment (Tango) hKOR): 3.23 nM | Emax [14]: 107 ± 3% | EC50 ([15]; EC50 G protein activation (BRET) mDOR): 6.27 nM | Emax ([15]; HEK-293T, read-out: Emax% G protein activation (BRET) mDOR): 105 ± 6.7% | Ki [16]: 0.2 ± 0.01 nM | Bias factor (cAMP-Tango) hMOR [17]: 4 | Log RA cAMP hMOR [17]: 9.84±0.002 | LogRA Tango hMOR [17]: 7.65±0.035 | ΔlogRA Tango hMOR [17]: 0.87±0.036 | ΔlogRA cAMP hMOR [17]: 1.44±0.002 | ΔΔlog RA (cAMP-Tango) hMOR [17]: 0.57±0.036 | EC50 ([18]; EC50 cAMP inhibition hDOR): 2.76 nM | Emax ([18]; HEK-293T, read-out: Emax% cAMP inhibition hDOR): 106 ± 2.3% | Emax [19]: 37 ± 3%

NCc1ccc(C(=O)N[C@@H]2CC[C@H]3[C@H]4Cc5ccc(O)c6c5[C@@]3(CCN4CC3CC3)[C@H]2O6)cc1 [MP1209, 4-(Aminomethyl)-N-((4R,4aR,7R,7aR,12bS)−3-(cyclopropylmethyl)−9-hydroxy-2,3,4,4a,5,6,7,7a-octahydro-1H-4,12-methano[1]benzofuro[3,2-e]isoquinolin-7-yl)benzamide]
Emax [1]: 98.5 ± 0.96% | EC50 ([1]; pEC50 cAMP inhibition hMOR): 0.245 nM | arrestin recruitment at hMOR (in words) [20]: null arrestin recruitment | ΔΔlog RA (cAMP-Tango) hKOR [9]: -0.238±0.32 | Log RA cAMP hKOR [9]: 10.55±0.06 | LogRA Tango hKOR [9]: 8.735±0.220 | ΔlogRA Tango hKOR ([9]; vs U50,488h): 0.368±0.31 | ΔlogRA cAMP hKOR ([9]; vs U50,488h): 0.13±0.084 | EC50 ([13]; EC50 cAMP inhibition hKOR): 0.024 nM | Emax [13]: 100 ± 1.23% | Emax [14]: 67 ± 3% | EC50 ([14]; pEC50 arrestin recruitment (Tango) hKOR, ± SEM): 0.372 nM
